Test results as given in paper PMC11817060, “Optimizing Therapeutics for Intratumoral Cancer Treatments: Antiproliferative Vanadium Complexes in Glioblastoma” (International Journal of Molecular Sciences, 2025).
Read-outs that look alike come from different tables or passages of the source.

Assays:
[1] = tested on: T98G (glioblastoma multiforme) cells; assay: MTT cell viability assay (72 h), fresh or aged solutions, T98G; assay type: cell-based, human; details: 72 h incubation
Experimental: (§1) For viability experiments, the cells were seeded in 96-well plates at an initial density of 1.0 × 10^3 (T98G) or 3.0 × 10^3 (SVG p12) viable cells per well in 100 μL medium and left to attach overnight.
(§2) For all cell assays, freshly prepared stock solutions of the V(V) complexes (10 mM in DMSO) were used. […] The same concentration of DMSO was used in the control experiments. Stock solutions of Na3VO4 (10 mM in MilliQ H2O) and cisplatin (1.0 mM in phosphate-buffered saline) were prepared on the day of the experiments. […] The treatment complexes were applied in a series of nine two-fold dilutions, starting from 100 μM V, plus the vehicle control. Each treatment was composed of six replicate wells with cells and two background wells without cells but containing the same compounds. […] (1.0 mg/mL in complete medium), and incubation was continued for 4–6 h. The medium was then removed, the blue formazan crystals were dissolved in 0.10 mL per well of DMSO, and the absorbance at 600 nm was measured with a Victor V3 plate reader.

[2] = tested on: SVG p12 (immortalized non-cancer brain astroglia) cells; assay: MTT cell viability assay (72 h), fresh or aged solutions, SVG p12; assay type: cell-based, human; details: for IC50: 72 h incubation
Experimental: as §1, §2

[3] = Homo sapiens, T98G, pre-incubated with medium for 24 h at 310 K before addition to cells (B), read-out: IC50 (T98G), aged solutions (B)

Structure (SMILES): CC(C)(C)c1cc(O)c(O)c(C(C)(C)C)c1 [DTBH2, 3,5-di-tert-butylcatechol]
- IC50 [1, 3]: 26 ± 3 µM

Structure (SMILES): CC(C)c1cc(O)c(O)c(C(C)C)c1 [DIPCATH2, 3,5-di-iso-propyl-catechol]
- IC50 [1, 3]: 54 ± 8 µM

Structure (SMILES): [Na+].[Na+].[Na+].[O]=[V]([O-])([O-])[O-] [Na3VO4]
- IC50 ([2]; pre-incubated with medium for 24 h at 310 K before addition to cells (B), read-out: IC50 (SVG p12), aged solutions (B)): 48 ± 4 µM
- Effect of subtoxic V(V) concentrations on cell viability ([2]; SVG p12, 72 h assay, aged in the medium for 24 h, not observed in T98G): increase in cell viability
- IC50 ([1]; pre-incubated with medium for 24 h at 310 K before addition to cells (B), read-out: IC50 (T98G), aged solutions (B)): 40 ± 3 µM

Structure (SMILES): N.N.[Cl][Pt][Cl] [cisplatin]
- IC50 ([2]; fresh solutions added to cells within 1 min (A), read-out: IC50 (SVG p12), fresh solutions (A)): 6.1 ± 0.4 µM
- IC50 ([1]; fresh solutions added to cells within 1 min (A), read-out: IC50 (T98G), fresh solutions (A)): 31 ± 1 µM

Structure (SMILES): OCCNCC/N=C/c1ccccc1O [Compound H2SHED, N-(salicylideneaminato)-N′-(2-hydroxyethyl)-1,2-ethanediamine]
- IC50 [1, 3]: > 100 µM

Structure (SMILES): CC(C)c1cc(C(C)C)c(C(C)C)c(O)c1O [TIPCATH2, 3,4,6-tri-iso-propyl catechol]
- IC50 [1, 3]: 54 ± 7 µM
